Measurements reported in patent US8673917B2, “2-heteroaryl-pyrrolo [3,4-C]pyrrole derivatives, and use thereof as SCD inhibitors” (Sanofi, priority 2008, dated 2014).
Counter-ions that a name gives are not always drawn.

Target: T1, SCD1 (Rattus norvegicus, UniProt P07308)
T1 construct: from tissue; host or cells: liver microsomes of male Wistar rats fed a carbohydrate-rich, low-fat diet
T1 sequence (P07308 1-358): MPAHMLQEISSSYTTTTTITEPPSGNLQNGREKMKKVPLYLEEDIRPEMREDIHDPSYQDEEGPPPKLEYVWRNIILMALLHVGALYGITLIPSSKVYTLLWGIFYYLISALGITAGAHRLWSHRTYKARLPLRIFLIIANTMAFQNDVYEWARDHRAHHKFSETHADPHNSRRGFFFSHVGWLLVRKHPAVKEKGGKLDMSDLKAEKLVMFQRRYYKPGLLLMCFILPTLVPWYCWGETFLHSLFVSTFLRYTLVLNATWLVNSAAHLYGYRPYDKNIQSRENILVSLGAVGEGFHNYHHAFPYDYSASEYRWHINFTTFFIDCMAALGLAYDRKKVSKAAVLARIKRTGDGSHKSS
Test: Stearoyl-CoA desaturase (SCD1) activity assay with rat liver microsomes, TLC with 1-14C-labeled stearic acid
Format: biochemical
Settings: for IC50: SCD1 activity; for inhibition at 10 µM: inhibition of SCD1 activity at 10 μM/l
Experimental: The efficacy of the inventive compounds of the formula I was tested with microsomal enzymes in the following assay system:
The livers of male Wistar rats which (to induce the expression of SCD1) had been fed with a carbohydrate-rich, low-fat diet were homogenized with a Potter tissue homogenizer and differential centrifugation in a buffer which contained 250 mM/l of sucrose and 5 mM/l of HEPES (pH 7.0). The resuspended microsome fraction was stored at −80° C. The stearoyl-CoA desaturase activity was determined in a thin-film chromatography assay with 1-^14C-labeled stearic acid. In short, the particular inventive compounds (in DMSO in a final concentration of 1% [v/v]) were incubated with 15 μg of the rat liver microsomes in 200 μl of assay buffer (6 mM/l of MgCl2, 250 mM/l of sucrose, 150 mM/l of KCl, 40 mM/l of NaF, 100 mM/l of Na2HPO4 (pH7.4), 1.3 mM/l of ATP, 1.5 mM/l of reduced glutathione, 60 uM/l of CoA, 0.33 mM/l of nicotinamide and 0.94 mM/l of NADH) at room temperature for 10 min. 0.5 μCi [1-^14C]-stearic acid (55 mCi/mmol) was added, and the mixture was incubated at 37° C. for 1 h. The radioactively labeled fatty acids were subsequently hydrolyzed at 65° C. with 2.5 M KOH/MeOH:H2O (4:1) for 4 h, protonated with 280 μl of formic acid and extracted with 500 μl of hexane. The TLC plates were immersed into 10% AgNO3 and heat-activated before use. 150 μl of the hexane phase were applied to the plates, and the TLC plates were developed in buffer (chloroform:methanol:acetic acid:water [90:8:1:0.8]) and dried. The plates were read off in a phosphoimager to quantify the SCD1 activity.
The person skilled in the art can modify this assay in various aspects to determine the inhibition of the stearoyl-CoA desaturase activity.

Compound | IC50 [nM] | inhibition at 10 µM [%]
O=C(c1ccccc1C(F)(F)F)N1CC2=C(C1)CN(c1ccc(OCc3ccccc3)cn1)C2 [Example 1, [5-(5-Benzyloxypyridin-2-yl)-3,4,5,6-tetrahydro-1H-pyrrolo[3,4-c]pyrrol-2-yl](2-trifluoromethylphenyl)methanone] | 133 | 80
O=C(c1ccccc1C(F)(F)F)N1CC2=C(C1)CN(c1ccc(OCc3nccs3)nn1)C2 [Example 2, {5-[6-(Thiazol-2-ylmethoxy)pyridazin-3-yl]-3,4,5,6-tetrahydro-1H-pyrrolo[3,4-c]pyrrol-2-yl}-(2-trifluoromethylphenyl)methanone] | 795 | 86
O=C(c1ccccc1C(F)(F)F)N1CC2=C(C1)CN(c1ccc(OCc3ccccc3)nn1)C2 [Example 3, [5-(6-Benzyloxpyridazin-3-yl)-3,4,5,6-tetrahydro-1H-pyrrolo[3,4-c]pyrrol-2-yl](2-trifluoromethylphenyl)methanone] | 7.18 | 100
O=C(c1ccccc1C(F)(F)F)N1CC2=C(C1)CN(c1ccc(OCCc3ccccc3)nn1)C2 [Example 4, [5-(6-Phenethyloxypyridazin-3-yl)-3,4,5,6-tetrahydro-1H-pyrrolo[3,4-c]pyrrol-2-yl](2-trifluoromethylphenyl)methanone trifluoroacetate] | 43.4 | –
O=C(c1ccccc1C(F)(F)F)N1CC2=C(C1)CN(c1ccc(OCCC3CC3)nn1)C2 [Example 5, {5-[6-(2-Cyclopropylethoxy)pyridazin-3-yl]-3,4,5,6-tetrahydro-1H-pyrrolo[3,4-c]pyrrol-2-yl}-(2-trifluoromethylphenyl)methanone trifluoroacetate] | 213 | –
O=C(c1ccccc1C(F)(F)F)N1CC2=C(C1)CN(c1ccc(OCc3cscn3)nn1)C2 [Example 6, {5-[6-(Thiazol-4-ylmethoxy)pyridazin-3-yl]-3,4,5,6-tetrahydro-1H-pyrrolo[3,4-c]pyrrol-2-yl}-(2-trifluoromethylphenyl)methanone trifluoroacetate] | 483 | –
O=C(c1ccccc1C(F)(F)F)N1CC2=C(C1)CN(c1ccc(OCC3CCOCC3)nn1)C2 [Example 7, {5-[6-(Tetrahydropyran-4-ylmethoxy)pyridazin-3-yl]-3,4,5,6-tetrahydro-1H-pyrrolo[3,4-c]pyrrol-2-yl}-(2-trifluoromethylphenyl)methanone trifluoroacetate] | 7120 | –
O=C(c1ccccc1C(F)(F)F)N1CC2=C(C1)CN(c1ccc(OCc3ccccc3)nn1)C2 [Example 8, 5-(6-Benzyloxypyridazin-3-yl)-3,4,5,6-tetrahydro-1H-pyrrolo[3,4-c]pyrrol-2-yl](2-trifluoromethylphenyl)methanone hydrochloride] | 8.48 | –
O=C(c1ccccc1C(F)(F)F)N1CC2=C(C1)CN(c1ccc(OCc3ccccn3)nn1)C2 [Example 9, 5-[6-(Pyridin-2-ylmethoxy)pyridazin-3-yl]-3,4,5,6-tetrahydro-1H-pyrrolo[3,4-c]pyrrol-2-yl}-(2-trifluoromethylphenyl)methanone hydrochloride] | 1340 | –
